Legend:
[1] = tested on: bicistronic HCV replicon (replicon RNA, GenBank Accession No. AJ242654); experiment: HCV Replicon Assay; type: cell-based; conditions: Hepatitis C virus, 72 h, read-out: Replicon IC50

COC(=O)c1c(-c2ccc(S(=O)(=O)N[C@@H](C)C(F)(F)F)cn2)n(C2CCCCC2)c2ccc(F)cc12 [compound 717, methyl 1-cyclohexyl-5-fluoro-2-(5-{[(2S)-1,1,1-trifluoropropan-2-yl]sulfamoyl}pyridin-2-yl)-1H-indole-3-carboxylate]
melting point: 232 to 240 °C
IC50 [1]: 500 to 2000 nM

Cc1cc2c(cc1F)c(C(N)=O)c(-c1ccc(S(=O)(=O)N[C@@H](C)C(F)(F)F)cn1)n2-c1cnccn1 [compound 875, 5-fluoro-6-methyl-1-(pyrazin-2-yl)-2-(5-{[(2S)-1,1,1-trifluoropropan-2-yl]sulfamoyl}pyridin-2-yl)-1H-indole-3-carboxamide]
melting point: 162 to 169 °C
IC50 [1]: < 500 nM

Cc1ccc2c(c1)c(C#N)c(-c1ncc(S(=O)(=O)NC(CF)CF)cn1)n2CC1CC1 [compound 524, 2-[3-cyano-1-(cyclopropylmethyl)-5-methyl-1H-indol-2-yl]-N-(1,3-difluoropropan-2-yl)pyrimidine-5-sulfonamide]
melting point: 151 to 155 °C
IC50 [1]: < 500 nM

Cc1ccc2c(c1)c(C#N)c(-c1ccc(S(=O)(=O)NC(CF)CF)cn1)n2-c1ccccn1 [compound 504, 6-[3-cyano-5-methyl-1-(pyridin-2-yl)-1H-indol-2-yl]-N-(1,3-difluoropropan-2-yl)pyridine-3-sulfonamide]
melting point: 177 to 179 °C
IC50 [1]: < 500 nM

COc1ccc2c(C#N)c(-c3ccc(S(=O)(=O)N[C@@H](C)C4CC4)cn3)n(C3CCC3)c2c1 [compound 429, 6-(3-cyano-1-cyclobutyl-6-methoxy-1H-indol-2-yl)-N-[(1S)-1-cyclopropylethyl]pyridine-3-sulfonamide]
melting point: 193 to 199 °C
IC50 [1]: < 500 nM

Cc1cc2c(C#N)c(-c3ccc(S(=O)(=O)N[C@@H](C)C(F)(F)F)cn3)n(C3CCC3)c2cc1F [compound 492, 6-(3-cyano-1-cyclobutyl-6-fluoro-5-methyl-1H-indol-2-yl)-N-[(2S)-1,1,1-trifluoropropan-2-yl]pyridine-3-sulfonamide]
melting point: 185 to 190 °C
IC50 [1]: < 500 nM

N#Cc1c(-c2ccc(S(=O)(=O)NC(CF)CF)cn2)n(C2CCCC2)c2cc(C3CC3)ccc12 [compound 85, 6-(3-cyano-1-cyclopentyl-6-cyclopropyl-1H-indol-2-yl)-N-(1,3-difluoropropan-2-yl)pyridine-3-sulfonamide]
melting point: 194 to 200 °C
IC50 [1]: < 500 nM

CCc1cc2c(cc1F)c(C#N)c(-c1ncc(S(=O)(=O)NC(CF)CF)cn1)n2C1CCCC1 [compound 638, 2-(3-cyano-1-cyclopentyl-6-ethyl-5-fluoro-1H-indol-2-yl)-N-(1,3-difluoropropan-2-yl)pyrimidine-5-sulfonamide]
melting point: 184 to 185 °C
IC50 [1]: < 500 nM

NC(=O)c1c(-c2ccc(S(N)(=O)=O)cn2)n(C2CCC2)c2cc(OC(F)F)ccc12 [compound 568, 1-cyclobutyl-6-(difluoromethoxy)-2-(5-sulfamoylpyridin-2-yl)-1H-indole-3-carboxamide]
melting point: 230 to 231 °C
IC50 [1]: 2000 to 5000 nM

C[C@H](NS(=O)(=O)c1ccc(-c2c(C#N)c3cc(Cl)ccc3n2C2CCC2)nc1)C1CC1 [compound 119, 6-(5-chloro-3-cyano-1-cyclobutyl-1H-indol-2-yl)-N-[(1S)-1-cyclopropylethyl]pyridine-3-sulfonamide]
melting point: 154 to 155 °C
IC50 [1]: < 500 nM

Cc1csc(-n2c(-c3ccc(S(=O)(=O)N[C@@H](C)C(F)(F)F)cn3)c(C#N)c3cc(F)c(C)cc32)n1 [compound 1038, 6-[3-cyano-5-fluoro-6-methyl-1-(4-methyl-1,3-thiazol-2-yl)-1H-indol-2-yl]-N-[(2S)-1,1,1-trifluoropropan-2-yl]pyridine-3-sulfonamide]
melting point: 206.3 to 211.7 °C
IC50 [1]: < 500 nM

Cc1cnc(-n2c(-c3ccc(S(=O)(=O)N[C@@H](C)C(F)(F)F)cn3)c(C#N)c3cc(F)c(C)cc32)s1 [compound 1017, 6-[3-cyano-5-fluoro-6-methyl-1-(5-methyl-1,3-thiazol-2-yl)-1H-indol-2-yl]-N-[(2S)-1,1,1-trifluoropropan-2-yl]pyridine-3-sulfonamide]
melting point: 223.1 to 228.1 °C
IC50 [1]: < 500 nM

N#Cc1c(-c2ccc(S(=O)(=O)NC(CF)CF)cn2)n(CC2CC2)c2cc(F)ccc12 [compound 57, 6-[3-cyano-1-(cyclopropylmethyl)-6-fluoro-1H-indol-2-yl]-N-(1,3-difluoropropan-2-yl)pyridine-3-sulfonamide]
melting point: 188 to 190 °C
IC50 [1]: < 500 nM

Cc1cc2c(cc1F)c(C#N)c(-c1ccc(S(=O)(=O)N[C@@H](C)C(F)(F)F)c(C)n1)n2C1CCCC1 [compound 868, 6-(3-cyano-1-cyclopentyl-5-fluoro-6-methyl-1H-indol-2-yl)-2-methyl-N-[(2S)-1,1,1-trifluoropropan-2-yl]pyridine-3-sulfonamide]
melting point: 206 to 211 °C
IC50 [1]: < 500 nM

N#Cc1c(-c2ncc(S(=O)(=O)NC(CF)CF)cn2)n(C2CCCC2)c2cc(C3CC3)ccc12 [compound 173, 2-(3-cyano-1-cyclopentyl-6-cyclopropyl-1H-indol-2-yl)-N-(1,3-difluoropropan-2-yl)pyrimidine-5-sulfonamide]
melting point: 215 to 219 °C
IC50 [1]: < 500 nM

CC(C)NS(=O)(=O)c1ccc(-c2c(C#N)c3ccc(C#N)cc3n2CC2CC2)nc1 [compound 348, 6-[3,6-dicyano-1-(cyclopropylmethyl)-1H-indol-2-yl]-N-(propan-2-yl)pyridine-3-sulfonamide]
melting point: 190 to 192 °C
IC50 [1]: 500 to 2000 nM

CCc1cc2c(cc1F)c(C#N)c(-c1ccc(S(=O)(=O)N[C@@H](C)C(F)(F)F)cn1)n2-c1cccc(Cl)c1 [compound 1018, 6-[1-(3-chlorophenyl)-3-cyano-6-ethyl-5-fluoro-1H-indol-2-yl]-N-[(2S)-1,1,1-trifluoropropan-2-yl]pyridine-3-sulfonamide]
melting point: 195 to 198 °C
IC50 [1]: < 500 nM

C[C@H](NS(=O)(=O)c1ccc(-c2c(C#N)c3cc(O)c(OC(F)F)cc3n2C2CCC2)nc1)C(F)(F)F [compound 674, 6-[3-cyano-1-cyclobutyl-6-(difluoromethoxy)-5-hydroxy-1H-indol-2-yl]-N-[(2S)-1,1,1-trifluoropropan-2-yl]pyridine-3-sulfonamide]
melting point: 174 to 177 °C
IC50 [1]: < 500 nM

CC(C)n1c(-c2ccc(NS(=O)(=O)C(C)(C)C)nc2)c(C#N)c2ccc(OC(F)F)cc21 [compound 299, N-{5-[3-cyano-6-(difluoromethoxy)-1-(propan-2-yl)-1H-indol-2-yl]pyridin-2-yl}-2-methylpropane-2-sulfonamide]
melting point: 263 to 264 °C
IC50 [1]: 2000 to 5000 nM

COc1ccc(-n2c(-c3ccc(S(=O)(=O)NC(CF)CF)cn3)c(C#N)c3cc(F)ccc32)cc1 [compound 336, 6-[3-cyano-5-fluoro-1-(4-methoxyphenyl)-1H-indol-2-yl]-N-(1,3-difluoropropan-2-yl)pyridine-3-sulfonamide]
melting point: 198 to 200 °C
IC50 [1]: < 500 nM

C[C@@H](NS(=O)(=O)c1ccc(-c2c(C#N)c3ccc(OC(F)(F)F)cc3n2C2CCC2)nc1)C(F)(F)F [compound 191, 6-[3-cyano-1-cyclobutyl-6-(trifluoromethoxy)-1H-indol-2-yl]-N-[(2R)-1,1,1-trifluoropropan-2-yl]pyridine-3-sulfonamide]
melting point: 171 to 177 °C
IC50 [1]: 500 to 2000 nM

— patent US8735414B2 (priority 2009, dated 2014)
